Biological target: T1, VMAT-2 (Homo sapiens, UniProt Q05940)
T1 construct: Novascreen Biosciences Corporation (contract assay provider) protocol Cat. No. 100-0751
Assay: VMAT-2 binding affinity measurement (Novascreen protocol Cat. No. 100-0751)
Conditions: for Ki: VMAT-2 binding affinity, reserpine value is the average of two Ki values; for binding affinity for VMAT-2 (in words): relative to reserpine and DTBZ controls
From the text: Novascreen, Inc. is a commercial provider of biological assays for the pharmaceutical industry. […] In addition, the binding constants Ki expressed in nano-molar (nM) concentration units indicate a very high affinity of the fluoroalkyl tetrabenazine carbinol compounds of the present invention for the VMAT-2 biomarker.

T1 sequence (Q05940 whole entry, species assumed): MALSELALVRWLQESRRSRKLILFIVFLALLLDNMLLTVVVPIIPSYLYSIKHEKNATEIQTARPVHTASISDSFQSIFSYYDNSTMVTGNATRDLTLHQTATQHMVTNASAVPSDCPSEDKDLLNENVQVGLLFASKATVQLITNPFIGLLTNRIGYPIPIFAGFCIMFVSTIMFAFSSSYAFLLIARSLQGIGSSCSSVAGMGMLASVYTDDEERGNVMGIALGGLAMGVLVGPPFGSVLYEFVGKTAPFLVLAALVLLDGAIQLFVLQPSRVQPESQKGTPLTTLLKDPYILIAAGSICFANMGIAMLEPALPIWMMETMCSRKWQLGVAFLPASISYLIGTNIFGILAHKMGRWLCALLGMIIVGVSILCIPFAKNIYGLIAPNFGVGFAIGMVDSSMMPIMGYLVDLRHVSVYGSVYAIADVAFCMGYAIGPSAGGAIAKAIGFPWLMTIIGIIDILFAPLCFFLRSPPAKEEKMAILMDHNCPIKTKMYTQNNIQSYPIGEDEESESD

Ki [µM]	binding affinity for VMAT-2 (in words)	SMILES
0.019	very high binding affinity	COc1cc2c(cc1OC)[C@H]1C[C@@](C#CCF)(OC(C)=O)[C@H](CC(C)C)CN1CC2 [Compound 16, (2R,3R,11bR)-2-(3-fluoroprop-1-ynyl)-3-isobutyl-9,10-dimethoxy-2,3,4,6,7,11b-hexahydro-1-H-pyrido[2,1-α]isoquinolin-2-yl acetate]
0.019	very high binding affinity	COc1cc2c(cc1OC)[C@H]1C[C@](O)(C#CCF)[C@H](CC(C)C)CN1CC2 [Compound 17]

From patent publication US7919622B2, “Intermediates for fluorinated tetrabenazine carbinol compounds imaging agents and probes” (priority 2007, dated 2011)
